Several values for one entry are separate records, joined by “and”; a condition that tells them apart may be missing. Equal entries are not always repeated. Structures can show the parent of a compound that is named as a salt.
Row | melting point | Compound
1 | 163 °C and 162 °C | COc1cc(OC)cc(C(CCNC(C)C)c2ccc3ncc(-c4cnn(C)c4)nc3c2)c1 (single isomer, unassigned) (as salt: oxalic acid salt) [Compound 19a]
2 | 172 °C | COc1cc(OC)cc(C(CCNC(C)C)c2ccc3ncc(-c4cnn(C)c4)nc3c2)c1 (single isomer, unassigned) (as salt: oxalic acid salt) [Compound 32a]
3 | 154 °C | COc1cc(OC)cc(C(CC(C)=O)c2ccc3ncc(-c4cnn(C)c4)nc3c2)c1 (stereo not drawn) [Compound 16]

Source: patent US9290478B2, “Substituted quinoxalines as FGFR kinase inhibitors” (ASTEX THERAPEUTICS LTD, priority 2010, dated 2016)
